In article PMC5929447 (Oncotarget, 2018):
“And” between values parts separate entries of the source, which are not always exact repeats. Identical values can stand only once.

Experiments:
MCL-1 = MCL-1 (Homo sapiens, UniProt Q07820); test: Fluorescence polarization (FP) with Fluorescein-PUMA, MCL-1; format: binding
BCL-2 = BCL-2 (Homo sapiens, UniProt P10415); test: Isothermal titration calorimetry (ITC), BCL-2; settings: binding to BCL-2
Description: The protein was dialyzed prior to use in 2 L of 25 mM HEPES, 150 mM NaCl, 5% glycerol (v/v), 0.5% MTG (v/v) at pH 7.4 for 3 hours at room temperature. The protein was dialyzed using a 3.5 K MWCO Slide-A-Lyzer™ cassette. The protein solution was recovered, spin-filtered through a […] frit. The filtered protein was quantified by UV absorbance at 280 nm using an extinction coefficient of 36440 M^-1cm^-1. 500 ml of dialysis buffer was retained (remainder used to rinse out SCHOT bottle) and degassed for a minimum of 30 mins under vacuum with constant stirring. […] The solutions were carefully matched to ensure same solvent and buffer conditions were present in both syringe and cell (this is to minimize heat of dilution effects). The final solution was the dialysis buffer plus 1% DMSO and 0.05% P20. The experiment was performed over 13 injections with stirring at 1000 rpm, gain setting low and at 25° C. Pure water was used in the reference cell. The first injection was 0.5 μl with a duration of 1 second with a gap of 150 seconds until the further 12 injections of 3.05 μl with a duration 6.1 seconds and a 240 second interval between injections. Data was analyzed using the vendor supplied software, PEAQ-ITC Analysis Software. The data model used was the single site model. The data shown is the average of 2 or 3 independent experiments.

Toledo xenograft = Toledo xenograft efficacy; format: in vivo, mice; settings: 200 mg/kg oral five times a week for 3 weeks, day 21
Description: Experiments were performed in SCID/beige female mice from Charles River Laboratories, Massachusetts, USA. Animals, approximately 7-8 weeks of age at the start of the treatment were allowed to acclimate in animal facility with access to food and water ad libitum for 3 days prior to manipulation. Animals were handled in accordance with IACUC regulations and guidelines for experiments performed in the USA and with European and French regulation for the protection of vertebrate animals for experiments performed in France. Animal well-being and behavior, including grooming and ambulation were monitored at least once a day. General health of mice was monitored and mortality recorded daily. Any moribund animals were sacrificed.
RS4;11 Acute Lymphoblastic Leukemia cell lines was obtained from ATCC. Toledo (Diffuse Large B-Cell Lymphoma) human cell lines were obtained internally through Bioresources and the Novartis-Cancer Cell Line Encyclopedia. Cells were free of Mycoplasma and murine viral contamination in the IMPACT VIII PCR assay panel (IDEXX RADIL, IDEXX laboratories INC, Westbrook, ME, USA). Cells used for subcutaneous implantation were cultured in RPMI plus 10% FBS at 37° C in a humidified atmosphere containing 5% carbon dioxide). […] Cells were resuspended in a 1:1 mixture of cold DPBS (Dulbecco's Phosphate-Buffered Saline) and Matrigel™ (Becton-Dickinson #354234) at a concentration of 3 × 10^7 cells/ml for Toledo cells, and of 1 × 10^7 cells/ml for RS4;11 cells.
For each experiment, female SCID/beige mice were implanted subcutaneously (right axillary region) with 3 × 10^6 Toledo or RS4;11 (1 × 10^6 cells for efficacy studies and 1 × 10^7 cells for pharmacodynamics studies) suspended in 1:1 mixture of cold DPBS and Matrigel™ in a total volume of 100 μl. Body weights were recorded and tumors were measured with digital calipers twice to three times a week. Tumor volume was calculated using the formula: length × width^2/2. Percent changes in body weights was calculated as (BWcurrent - BWinitial)/(BWinitial) × 100. Data is presented as percent body weight change from the day of treatment initiation.
(§1) When tumors reached approximately 200 mm^3 for efficacy studies or 300 mm^3 for pharmacodynamic studies, mice were randomized. […] Mice were treated via oral gavage at 10 ml/kg with the doses and schedules described in the figure.
For efficacy studies, percent treatment/control (T/C) values were calculated using the following formula: %T/C = 100 × ΔT/ΔC if ΔT > 0. Regression = 100 × ΔT/Tinitial if ΔT < 0 where: T = mean tumor burden of the drug-treated group on the final day of the study; ΔT = mean tumor burden of the drug-treated group on the final day of the study – mean tumor burden of the drug-treated group on initial day of dosing; Tinitial = mean tumor burden of the drug-treated group on initial day of dosing; C = mean tumor burden of the control group on the final day of the study; and ΔC = mean tumor burden of the control group on the final day of the study – mean tumor burden of the control group on initial day of dosing. If the tumor volume was less than 14 mm^3 for more than 3 consecutive measurements, animals were considered in complete regression (CR).

BFL-1 = target: T1, BFL-1 (Homo sapiens, UniProt Q16548); test: Fluorescence polarization (FP) with Fluorescein-PUMA, BFL-1; settings: at 3E-05 M
T1 sequence (Q16548 1-175): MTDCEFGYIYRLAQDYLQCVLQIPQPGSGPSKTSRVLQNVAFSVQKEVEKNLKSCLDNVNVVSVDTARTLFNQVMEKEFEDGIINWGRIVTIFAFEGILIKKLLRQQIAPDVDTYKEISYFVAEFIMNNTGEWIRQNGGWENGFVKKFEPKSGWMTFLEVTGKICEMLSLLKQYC
Description: Final concentrations of MCL-1, BFL-1, BCL-2 and BCL-XL proteins were 10, 10, 10 and 20 nM respectively. The assay plates were incubated for 2 hours at room temperature and the FP was measured on a Synergy 2 reader (Ex. 528 nm, Em. 640 nm, Cut-off 510 nm). The binding of increasing doses of compound was expressed as a percentage reduction in mP compared to the window established between ‘DMSO only’ and ‘total inhibition’ control (30 μM PUMA). […] The KI was subsequently calculated as previously described [42].

RS4;11 cell line = test: CellTiter-Glo cell viability, RS4;11; format: cell-based; settings: Homo sapiens, 72 h of treatment
Description: (§2) Cells were seeded into 96-well plates and treated at 8 points with 1:2 serial dilution of compounds. Cell viability was assessed and assayed for viability using CellTiter-Glo reagent (Promega) following the manufacturer's instructions. Plates were read using Tecan luminescence plate reader. Results were normalized to the viability of cells without compounds (control wells). The IC50 values were calculated using nonlinear regression algorithms in XCell software.

H146 cell line = test: CellTiter-Glo cell viability, H146; format: cell-based; settings: Homo sapiens, NCI-H146; 72 h of treatment
Description: as §2

BCL-2/BAX complex = BCL-2/BAX complex (Homo sapiens, UniProt P10415); test: Co-immunoprecipitation in BCL-2-overexpressing HeLa cells; format: cell-based; settings: 2 h
Chain of BCL-2/BAX complex (P10415 whole entry, one chain of several): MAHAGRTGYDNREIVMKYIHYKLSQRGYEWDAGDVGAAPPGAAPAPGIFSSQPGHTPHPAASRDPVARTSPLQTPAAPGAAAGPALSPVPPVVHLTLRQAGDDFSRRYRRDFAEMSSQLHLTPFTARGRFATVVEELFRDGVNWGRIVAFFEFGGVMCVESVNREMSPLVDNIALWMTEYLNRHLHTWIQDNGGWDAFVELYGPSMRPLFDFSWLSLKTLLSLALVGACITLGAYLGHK

[1] = test system: caspase-3 activity in RS4;11 tumor xenografts; test: Caspase-3 activity in RS4;11 tumor xenografts; format: in vivo; settings: 100 mg/kg single oral gavage, 16 h post dosing, SCID mice
Description: Body weights were recorded and tumors were measured with digital calipers twice to three times a week. Tumor volume was calculated using the formula: length × width^2/2. Percent changes in body weights was calculated as (BWcurrent - BWinitial)/(BWinitial) × 100. Data is presented as percent body weight change from the day of treatment initiation. When tumors reached approximately 200 mm^3 for efficacy studies or 300 mm^3 for pharmacodynamic studies, mice were randomized. […] Mice were treated via oral gavage at 10 ml/kg with the doses and schedules described in the figure. For pharmacodynamic studies, blood and tumors were removed 16 h post dosing and immediately snap-frozen. Total proteins were extracted from the tumors and caspase-3 activity was assessed in triplicate using CaspACE® Assay System (Promega). Platelet cell counts were determined 16 hours post dosing using Coulter AcT diff (Beckman).

platelets = test: Platelet counts in RS4;11-bearing mice; format: in vivo; settings: 100 mg/kg single oral dose, 16 h post dosing
Description: as §1
For pharmacodynamic studies, blood and tumors were removed 16 h post dosing and immediately snap-frozen. Total proteins were extracted from the tumors and caspase-3 activity was assessed in triplicate using CaspACE® Assay System (Promega). Platelet cell counts were determined 16 hours post dosing using Coulter AcT diff (Beckman).

BCL-XL/BAX complex = BCL-XL/BAX complex (Homo sapiens, UniProt Q07817); test: Co-immunoprecipitation in BCL-XL-overexpressing HeLa cells; settings: 2 h
Chain of BCL-XL/BAX complex (Q07817 whole entry, one chain of several): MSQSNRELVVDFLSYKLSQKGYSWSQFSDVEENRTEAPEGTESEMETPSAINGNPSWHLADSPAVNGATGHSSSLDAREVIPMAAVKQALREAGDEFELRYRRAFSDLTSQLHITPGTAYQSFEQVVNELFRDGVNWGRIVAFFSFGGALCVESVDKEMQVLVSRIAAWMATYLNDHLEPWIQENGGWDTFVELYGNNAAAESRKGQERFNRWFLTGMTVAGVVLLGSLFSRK
Description: Effecten reagent (Qiagen), with 3xFlag-tagged BCL-XL
24 h later, transfected Hela and RS4;11
were put under neomycin selection (800 µg/ml, Invitrogen) were then subjected to immunoprecipitation with anti-

[2] = test system: BCL-2-dependent FL5.12 cells; test: Apoptosis (annexin V/PI) in FL5.12 cells expressing BCL-2 upon IL-3 withdrawal; format: cell-based, murine; settings: 24 h upon IL-3 withdrawal
[3] = test system: isolated platelets from healthy volunteers; test: Apoptosis (annexin V) in isolated platelets; format: cell-based; settings: Homo sapiens, Platelet; 4 healthy donors, 3 h; read-out: EC50 apoptosis (PS+) in isolated platelets
Description: Peripheral blood samples from CLL patients were obtained with informed patient consent and local ethical committee approval (UHL-09723). […] Interphase fluorescence in situ hybridization (FISH) was performed for detection of 17p13 deletion. Mantle cell lymphoma (MCL) primary cells were obtained after informed consent from MCL patients treated at the department of clinical hematology from the University Hospital of Nantes, France. Peripheral MCL cells from blood or pleural effusion, were purified after Ficoll-Hypaque separation with immuno-magnetic anti-CD19 beads (Miltenyi, Paris, France). Primary cells were cultured in RPMI-1640 supplemented with 10% FCS and 2 mM glutamine. Human platelets were isolated from citrate blood donated by healthy volunteers. Washed platelets were cultured in Hepes-buffered saline (HBS, 10 mM Hepes, 150 mM NaCl, 5 mM KCl, 1 mM MgSO4, pH 7.4).
EC50 values were calculated using GraphPadPrism (non-linear fit, sigmoidal dose response, variable slope). […] Cell death was assessed in the CD19+ primary MCL cells by annexinV-FITC staining combined with an analysis of altered cellular morphology (lower FCS). Fluorescence was analyzed on FACSCalibur.

[4] = test system: BCL-XL-dependent FL5.12 cells; test: Apoptosis (annexin V/PI) in FL5.12 cells expressing BCL-XL upon IL-3 withdrawal; settings: 24 h upon IL-3 withdrawal

Chain of BCL-2 (P10415 whole entry): as the sequence (P10415 whole entry, one chain of several) above
Chain of MCL-1 (Q07820 whole entry): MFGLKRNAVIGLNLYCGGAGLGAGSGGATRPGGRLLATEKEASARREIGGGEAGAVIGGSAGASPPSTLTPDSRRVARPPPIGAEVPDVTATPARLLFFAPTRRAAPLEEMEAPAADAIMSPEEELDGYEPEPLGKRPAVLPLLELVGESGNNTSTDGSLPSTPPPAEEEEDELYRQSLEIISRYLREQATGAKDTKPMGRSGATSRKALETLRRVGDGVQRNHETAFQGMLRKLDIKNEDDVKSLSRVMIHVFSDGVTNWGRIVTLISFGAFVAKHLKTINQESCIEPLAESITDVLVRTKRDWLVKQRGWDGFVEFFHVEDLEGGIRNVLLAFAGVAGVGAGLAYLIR

FP_MCL-1, % of inhibition at the maximal tested concentration (MCL-1; at 30E-06 M) | N (sites), stoichiometry (BCL-2) [sites] | ∆H (enthalpy delta) (BCL-2) | FP_BFL-1, % of inhibition at the maximal tested concentration (BFL-1) [%@3E-05] | FP_MCL-1, % of inhibition at the maximal tested concentration (MCL-1; at 10E-06 M) [%@10E-06] | IC50 (RS4;11 cell line) [nM] | IC50 (H146 cell line) [nM] | platelet counts in vivo (platelets) | Structure (SMILES) | % T/C (Toledo xenograft) [% T/C] | Mean TV change (Toledo xenograft; mean ± s.e.m.) [mm3] | effect on BCL-2/BAX complex in BCL-2-overexpressing HeLa cells (BCL-2/BAX complex) | caspase-3 activity in tumor, times higher than in vehicle-treated animals [1] | effect on BCL-XL/BAX complex in BCL-XL-overexpressing HeLa cells (BCL-XL/BAX complex) | apoptosis induction (PS+ cells) in BCL-2-dependent FL5.12 cells [2] | EC50 [3] [nM] | apoptosis induction (PS+ cells) in BCL-XL-dependent FL5.12 cells [4]
14.9% and 11.8% | 1.1 | –12.1 kcal/mol | 6.4 | – | – | – | – | CC1(C)CCC(CN2CCN(c3ccc(C(=O)NS(=O)(=O)c4ccc(NCC5CCOCC5)c([N+](=O)[O-])c4)c(Oc4cnc5[nH]ccc5c4)c3)CC2)=C(c2ccc(Cl)cc2)C1 [ABT-199, reference compound] | 6 | 104.44 ± 70.31 | – | – | – | – | – | –
– | 0.8 | –13.1 kcal/mol | – | 9.4 | 41.5 | 49.7 | strong decrease of platelet counts | CC1(C)CCC(c2ccc(Cl)cc2)=C(CN2CCN(c3ccc(C(=O)NS(=O)(=O)c4ccc(N[C@H](CCN5CCOCC5)CSc5ccccc5)c(S(=O)(=O)C(F)(F)F)c4)cc3)CC2)C1 [ABT-263, reference compound] | – | – | disrupt both BCL-2/BAX and BCL-XL/BAX complexes | about 20 times | disrupt both BCL-2/BAX and BCL-XL/BAX complexes | – | – | –
– | – | – | – | – | – | – | – | CN(C)CC[C@H](CSc1ccccc1)Nc1ccc(S(=O)(=O)NC(=O)c2ccc(N3CCN(Cc4ccccc4-c4ccc(Cl)cc4)CC3)cc2)cc1[N+](=O)[O-] [ABT-737, reference compound] | – | – | – | – | – | efficiently induced apoptosis | 30 | efficiently induced apoptosis
